Assay results: patent publication US20230077362A1 (CORTEVA AGRISCIENCE LLC, priority 2019, published 2023)
Read-outs that look alike come from different tables or passages of the source.

Columns and labels:
[1] = test system: Beet Armyworm (Spodoptera exigua) ("BAW"), second instar larvae; test: Bioassay on beet armyworm (BAW), 128-well diet tray assay; assay type: in vivo; settings: for pest or weed control at 50 µg/cm2: Spodoptera exigua; for BAW rating: Table ABC, species BAW, C = not tested, D = no activity noticed
Procedure, shortened: (§1)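 Mortality (%) is scored well by well after five to seven days at 25° C. on a 14:10 light:dark regime. The value given is the mean of eight wells.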

[2] = test system: Cabbage Looper (Trichoplusia ni) ("CL"), second instar larvae; test: Bioassay on cabbage looper (CL), 128-well diet tray assay; assay type: in vivo; settings: for pest or weed control at 50 µg/cm2: Trichoplusia ni; for CL rating: Table ABC, species CL, C = not tested, D = no activity noticed
Procedure, shortened: as §1

[3] = read-out: BAW (Biological Results, rating)
[4] = read-out: CL (Biological Results, rating)

Row | SMILES | pest or weed control at 50 µg/cm2 [1, 3] [%] | pest or weed control at 50 µg/cm2 [2, 4] [%] | pest or weed control at 50 µg/cm2 ([1]; read-out: BAW rating) [%] | pest or weed control at 50 µg/cm2 ([2]; read-out: CL rating) [%] | further results
1 | Cc1ccc([N+](=O)[O-])c(N2C(=O)CS/C2=N\C(=O)Nc2ccc(-c3ncn(-c4ccc(OC(F)(F)F)cc4)n3)cc2F)c1 [Compound J163, (Z)-1-(2-Fluoro-4-(1-(4-(trifluoromethoxy)phenyl)-1H-1,2,4-triazol-3-yl)phenyl)-3-(3-(5-methyl-2-nitrophenyl)-4-oxothiazolidin-2-ylidene)urea] | 50 to 100 | 50 to 100 | – | – | –
2 | Cc1ccc(OCCC(F)(F)F)c(N2C(=O)CS/C2=N\C(=O)Nc2ccc(-c3ncn(-c4ccc(S(=O)(=O)C(F)(F)F)cc4)n3)cc2F)c1 [Compound J369, (Z)-1-(2-Fluoro-4-(1-(4-((trifluoromethyl)sulfonyl)phenyl)-1H-1,2,4-triazol-3-yl)phenyl)-3-(3-(5-methyl-2-(3,3,3-trifluoropropoxy)phenyl)-4-oxothiazolidin-2-ylidene)urea] | – | – | 50 to 100 | 50 to 100 | –
3 | Cc1ccc(COCC(F)(F)F)c(N2C(=O)CS/C2=N\C(=O)Nc2ccc(-c3cn(-c4ccc(S(F)(F)(F)(F)F)cc4)cn3)cc2F)c1 [Compound J598, (Z)-1-(2-Fluoro-4-(1-(4-(pentafluoro-λ^6-sulfaneyl)phenyl)-1H-imidazol-4-yl)phenyl)-3-(3-(5-methyl-2-((2,2,2-trifluoroethoxy)methyl)phenyl)-4-oxothiazolidin-2-ylidene)urea] | – | – | 50 to 100 | 50 to 100 | –
4 | COC(C)c1ccc(C)cc1N1C(=O)CS/C1=N\C(=O)Nc1c(C)cc(-c2ncn(-c3ccc(OC(F)(F)F)cc3)n2)cc1C (stereo not shown) [Compound J97, (Z)-1-(2,6-Dimethyl-4-(1-(4-(trifluoromethoxy)phenyl)-1H-1,2,4-triazol-3-yl)phenyl)-3-(3-(2-(1-methoxyethyl)-5-methylphenyl)-4-oxothiazolidin-2-ylidene)urea] | 50 to 100 | 50 to 100 | – | – | –
5 | CC(C)c1cc(F)c(N(C)C)cc1N1C(=O)CS/C1=N\C(=O)Nc1ccc(-c2ncn(-c3ccc(S(=O)(=O)C(F)(F)F)cc3)n2)cc1F [Compound J371, (Z)-1-(3-(5-(dimethylamino)-4-fluoro-2-isopropylphenyl)-4-oxothiazolidin-2-ylidene)-3-(2-fluoro-4-(1-(4-((trifluoromethyl)sulfonyl)phenyl)-1H-1,2,4-triazol-3-yl)phenyl)urea] | – | – | 50 to 100 | 50 to 100 | –
6 | CC(C)c1ccc(N(C)C)cc1N1C(=O)CS/C1=N\C(=O)Nc1ccc(-c2ncn(-c3ccc(C(F)(F)F)cn3)n2)cc1F [Compound J336, (Z)-1-(3-(5-(Dimethylamino)-2-isopropylphenyl)-4-oxothiazolidin-2-ylidene)-3-(2-fluoro-4-(1-(5-(trifluoromethyl)pyridin-2-yl)-1H-1,2,4-triazol-3-yl)phenyl)urea] | 50 to 100 | 50 to 100 | – | – | –
7 | Cc1ccc(C(C)C)c(N2C(=O)CS/C2=N\C(=O)Nc2ccc(-c3ncn(-c4ccc(OCC(F)(F)F)cc4)n3)cc2F)c1 [Compound J57, (Z)-1-(2-Fluoro-4-(1-(4-(2,2,2-trifluoroethoxy)phenyl)-1H-1,2,4-triazol-3-yl)phenyl)-3-(3-(2-isopropyl-5-methylphenyl)-4-oxothiazolidin-2-ylidene)urea] | 50 to 100 | 50 to 100 | – | – | –
8 | CC(C)c1ccc(N(C)C)cc1N1C(=O)CS/C1=N\C(=O)Nc1ccc(-c2nnc(-c3ccc(OC(F)(F)F)cc3)o2)cc1F [Compound J431, (Z)-1-(3-(5-(Dimethylamino)-2-isopropylphenyl)-4-oxothiazolidin-2-ylidene)-3-(2-fluoro-4-(5-(4-(trifluoromethoxy)phenyl)-1,3,4-oxadiazol-2-yl)phenyl)urea] | – | – | 50 to 100 | 50 to 100 | –
9 | Cc1ccc(COCC(F)(F)F)c(N2C(=O)CS/C2=N\C(=O)Nc2ccc(-c3cn(-c4ccc(C(F)(F)F)cn4)cn3)cc2)c1 [Compound J521, (Z)-1-(3-(5-Methyl-2-((2,2,2-trifluoroethoxy)methyl)phenyl)-4-oxothiazolidin-2-ylidene)-3-(4-(1-(5-(trifluoromethyl)pyridin-2-yl)-1H-imidazol-4-yl)phenyl)urea] | – | – | 50 to 100 | 50 to 100 | –
10 | Cc1cc(COCC(F)(F)F)c(N2C(=O)CS/C2=N\C(=O)Nc2ccc(-c3ncn(-c4ccc(OC(F)(F)F)cc4)n3)cc2F)cc1C [Compound J455] | – | – | – | – | BAW rating [1]: A (50-100); CL rating [2]: A (50-100)
11 | CC(C)c1cc(F)c(N(C)C)cc1N1C(=O)CS/C1=N\C(=O)Nc1ccc(-c2ncn(-c3ccc(OC(F)(F)F)cn3)n2)cc1F [Compound J261, (Z)-1-(3-(5-(Dimethylamino)-4-fluoro-2-isopropylphenyl)-4-oxothiazolidin-2-ylidene)-3-(2-fluoro-4-(1-(5-(trifluoromethoxy)pyridin-2-yl)-1H-1,2,4-triazol-3-yl)phenyl)urea] | 50 to 100 | 50 to 100 | – | – | –
12 | Cc1cc(-c2cn(-c3ccc(S(F)(F)(F)(F)F)cc3)cn2)ccc1NC(=O)/N=C1\SCC(=O)N1c1cc(N(C)C)ccc1C(C)C [Compound J618, (Z)-1-(3-(5-(Dimethylamino)-2-isopropylphenyl)-4-oxothiazolidin-2-ylidene)-3-(2-methyl-4-(1-(4-(pentafluoro-λ^6-sulfaneyl)phenyl)-1H-imidazol-4-yl)phenyl)urea] | – | – | 50 to 100 | 50 to 100 | –
13 | CCCc1ccc(C)cc1N1C(=O)CS/C1=N\C(=O)Nc1ccc(-c2ncn(-c3ccc(N(C(=O)OC)C(F)(F)F)cc3)n2)cc1C [Compound J784] | – | – | – | – | BAW rating [1]: A (50-100); CL rating [2]: A (50-100)
14 | Cc1ccc(Cc2ccc(F)cc2)c(N2C(=O)CS/C2=N\C(=O)Nc2ccc(-c3ncn(-c4ccc(OC(F)(F)F)cc4)n3)cc2F)c1 [Compound J674, (Z)-1-(2-Fluoro-4-(1-(4-(trifluoromethoxy)phenyl)-1H-1,2,4-triazol-3-yl)phenyl)-3-(3-(2-(4-fluorobenzyl)-5-methylphenyl)-4-oxothiazolidin-2-ylidene)urea] | – | – | 50 to 100 | 50 to 100 | –
15 | Cc1ccc(COCC(F)(F)F)c(N2C(=O)CS/C2=N\C(=O)Nc2ccc(-c3cn(-c4ccc(C(F)(F)F)cn4)cn3)cc2F)c1 [Compound J487, (Z)-1-(2-Fluoro-4-(1-(5-(trifluoromethyl)pyridin-2-yl)-1H-imidazol-4-yl)phenyl)-3-(3-(5-methyl-2-((2,2,2-trifluoroethoxy)methyl)phenyl)-4-oxothiazolidin-2-ylidene)urea] | – | – | 50 to 100 | 50 to 100 | –
16 | CC(C)c1cc(F)c(N(C)C)cc1N1C(=O)CS/C1=N\C(=O)Nc1ccc(-c2ncn(-c3ccc(C(F)(F)F)cn3)n2)cc1F [Compound J352] | – | – | – | – | BAW (Biological Results, rating) ([1]; Beet Armyworm (Spodoptera exigua), C = Not Tested): A (50-100); CL (Biological Results, rating) ([2]; Cabbage Looper (Trichoplusia ni), C = Not Tested): A (50-100)
17 | Cc1ccc(COCC(F)(F)F)c(N2C(=O)C(Cl)(Cl)S/C2=N\C(=O)Nc2ccc(-c3ncn(-c4ccc(OC(F)(F)F)cc4)n3)cc2F)c1 [Compound J458, (Z)-1-(5,5-dichloro-3-(5-methyl-2-((2,2,2-trifluoroethoxy)methyl)phenyl)-4-oxothiazolidin-2-ylidene)-3-(2-fluoro-4-(1-(4-(trifluoromethoxy)phenyl)-1H-1,2,4-triazol-3-yl)phenyl)urea] | – | – | 50 to 100 | 50 to 100 | –
18 | CCc1ccc(C)cc1N1C(=O)CS/C1=N\C(=O)Nc1ccc(-c2ncn(-c3ccc(OC(F)(F)C(F)(F)F)cc3)n2)c(C)c1 [Compound J14, (Z)-1-(3-(2-Ethyl-5-methylphenyl)-4-oxothiazolidin-2-ylidene)-3-(3-methyl-4-(1-(4-(perfluoroethoxy)phenyl)-1H-1,2,4-triazol-3-yl)phenyl)urea] | 50 to 100 | 50 to 100 | – | – | –
19 | Cc1ccc(OCC(F)(F)F)c(N2C(=O)CS/C2=N\C(=O)Nc2ccc(-c3ncn(-c4ccc(OC(F)(F)F)cc4)n3)cc2C(F)F)c1 [Compound J212, (Z)-1-(2-(Difluoromethyl)-4-(1-(4-(trifluoromethoxy)phenyl)-1H-1,2,4-triazol-3-yl)phenyl)-3-(3-(5-methyl-2-(2,2,2-trifluoroethoxy)phenyl)-4-oxothiazolidin-2-ylidene)urea] | 50 to 100 | 50 to 100 | – | – | –
20 | Cc1ccc(N(C)C)c(N2C(=O)CS/C2=N\C(=O)Nc2ccc(-c3ncn(-c4ccc(OC(F)(F)F)cc4)n3)cc2)c1 [Compound J322, (Z)-1-(3-(2-(dimethylamino)-5-methylphenyl)-4-oxothiazolidin-2-ylidene)-3-(4-(1-(4-(trifluoromethoxy)phenyl)-1H-1,2,4-triazol-3-yl)phenyl)urea] | 50 to 100 | 50 to 100 | – | – | –
21 | Cc1ccc(COCC(F)(F)Cl)c(N2C(=O)CS/C2=N\C(=O)Nc2ccc(-c3ncn(-c4ccc(OC(F)(F)F)cc4)n3)cc2F)c1 [Compound J437] | – | – | – | – | BAW rating [1]: A (50-100); CL rating [2]: A (50-100)
22 | COc1cc(-c2ncn(-c3ccc(OC(F)(F)F)cc3)n2)ccc1NC(=O)/N=C1\SCC(=O)N1c1cc(N(C)C)ccc1C(C)C [Compound J89, (Z)-1-(3-(5-(Dimethylamino)-2-isopropylphenyl)-4-oxothiazolidin-2-ylidene)-3-(2-methoxy-4-(1-(4-(trifluoromethoxy)phenyl)-1H-1,2,4-triazol-3-yl)phenyl)urea] | 50 to 100 | 50 to 100 | – | – | –
23 | Cc1ccc(COCC(F)(F)F)c(N2C(=O)CS/C2=N\C(=O)Nc2ccc(-c3ncn(-c4ccc(OC(F)(F)F)cc4)n3)cc2F)c1C [Compound J678] | – | – | – | – | BAW rating [1]: A (50-100); CL rating [2]: A (50-100)
